Test results: patent publication US20050220779A1, “Integrin linked kinase modulation of macrophage activation” (priority 2001, published 2005)

Key:
[1] = test system: COX-2; experiment: COX-2 protein expression in LPS-IFN-γ stimulated macrophages (western blot); assay type: cell-based, murine; settings: LPS-IFN-γ stimulated macrophages, western blot
Protocol: Western blot analysis. After incubation with the indicated stimuli in the presence of ILK inhibitors, cells (duplicate samples, 2×10^6cell/6-wells plate) were washed in PBS and lysed on ice in 60 μl of lysis buffer. The protein content of each sample was determined using the Bradford protein assay kit (Bio-Rad, Richmond, Calif.). Absorbance was measured at 750 nm with a Beckman DU530 spectrophotometer (Palo Alto, Calif.). Proteins were mixed with 45×SDS sample buffer. Following separation of proteins by SDS-PAGE, using 8% bis-acrylamide in the separation gel, the proteins were transferred from the gels onto PVDF membranes using a MiniProtean III Cell (Bio-Rad), at 100 V for 1.5 h. Equal amounts of protein (5 μg) were loaded onto SDS-PAGE gels and examined by Western blot analysis with anti-Actin, anti-iNOS, anti-COX-2 murine monoclonal antibodies according to the manufacturers specifications (Transduction Laboratories). […] The Multi-Analyst/PC system from Biorad is being used to quantitate the bands of the expressed protein on the film. […] White light is chosen as the selected light source, thus the signal strength is measured in OD (optic density) units. […]
Effects of ILK inhibitors on the LPS-IFN-γ-induced iNOS and COX-2 expression NO production requires that iNOS be enzymatically activity, therefore experiments were performed to examine whether the inhibitory effect of ILK inhibitors was mediated by […] iNOS protein synthesis or effects on the activity of existing enzyme. Stimulated cells were treated with ILK inhibitors (25 μM), and lysed 16 h later and a western blot analysis was performed to quantitate iNOS protein expression. […]
Nitric oxide and Prostaglandin E2 are two pleiotropic mediators produced at inflammatory sites by the inducible enzymes iNOS and cyclooxygenase-2 (COX-2), respectively. […] Finally, we evaluated the in-vitro effects of compounds on production of MCP-1 chemokine by TNF-α stimulated HUVEC cells. […]

[2] = test system: RAW 264.7 cells; experiment: LPS-IFN-γ-induced macrophage NO production (Griess nitrite assay), RAW 264.7 cells; assay type: cell-based, murine; settings: 24 h; for NO release (%): 50 μM, relative to DMSO treated cells; for inhibition at 50 µM: Mus musculus, RAW264.7, 50 μM
Protocol: RAW 264.7 cells. RAW 264.7 cells, a murine macrophage cell line, were obtained from American Type Culture Collection (ATCC, Manassas, Va.) and cultured in DMEM supplemented with 10% FCS. Each treatment was performed in triplicate wells. RAW 264.7 cells (Balb/c background) produce a significant amount of nitric oxide upon treatment with IFN-γ alone, but require LPS for full activation. This property makes their behavior more like that of normal macrophages obtained from commonly used strains of mice.
Treatment of primary macrophages and RAW 264.7 cells. […] Following 3 h incubation, at 37 C, 5% CO2 (macrophages were allowed to attach) cells were stimulated with LPS (0.5 μg/ml) and IFN-γ (100 U/ml) in the absence or presence of various concentrations of ILK inhibitors (all treatments were replicated six times). Cells were incubated for an additional 24 h, and cell free culture supernatants from each well were collected for NO and cytokine determination. The remaining cells were stained with crystal violet to determine effect of the inhibitors on cell survival.
(§1) NO production. Following stimulation, the production of NO was determined by assaying culture supernatants for NO2^−, a stable reaction product of NO with molecular oxygen. Briefly, 100 μl of culture supernatant was reacted with an equal volume of Griess reagent at room temperature for 10 min. The absorbance at 550 nm was determined. All measurements were performed six times. The concentration of NO2^−was calculated by comparison with a standard curve prepared using NaNO2.
(§2) Effects of ILK inhibitors on LPS-IFN-γ-induced NO release. […] […] To compare the effect of the compounds across three different cell types, the NO release for each cell type was expressed relative to DMSO treated cells.

[3] = test system: BALB/c cells (primary peritoneal macrophages); experiment: LPS-IFN-γ-induced macrophage NO production (Griess nitrite assay), BALB/c cells; assay type: cell-based, mouse; settings: 50 μM, 24 h; for NO release (%): relative to DMSO treated cells; for inhibition at 50 µM: Mus musculus, Peritoneal macrophage
Protocol: Isolation of primary mouse macrophages. Peritoneal exudate macrophages were isolated by peritoneal lavage with ice-cold sterile physiological saline 24 h after intraperitoneal injection of BALB/c and CB57BL/6 mice with 0.3 ml of sterile Zymosan A (1 mg/0.5 ml 0.9% saline). Cells were washed, resuspended in RPMI 1640 supplemented with 2 mM L-glutamine, 100 units/ml penicillin, 100 μg/ml streptomycin, and 5% FBS.
(§3) Treatment of primary macrophages and RAW 264.7 cells. Primary macrophages (1.5×10^5 cells/well) and RAW 264.7 (4×10^4 cells/well) cells were grown in 96-well plates (nitrite assay), or 6-well plates (2×10^6 cells/well) for measurement of iNOS and COX-2 expression. Following 3 h incubation, at 37 C, 5% CO2 (macrophages were allowed to attach) cells were stimulated with LPS (0.5 μg/ml) and IFN-γ (100 U/ml) in the absence or presence of various concentrations of ILK inhibitors (all treatments were replicated six times). Cells were incubated for an additional 24 h, and cell free culture supernatants from each well were collected for NO and cytokine determination. The remaining cells were stained with crystal violet to determine effect of the inhibitors on cell survival.
as §1
as §2, with “cells. […] For example, macrophages from Balb/c and C57BL/6 mice responded similarly to the treatment with the compounds.” for “cells.”

[4] = test system: RAW 264.7 cells; experiment: Cell survival by crystal violet staining, RAW 264.7 cells; assay type: cell-based; settings: 50 μM, 24 h, DMSO-treated = 100%
Protocol: as §3
Effect of ILK Inhibitors on suppression of NO production and cell survival. Twenty-four hours following treatment with the ILK inhibitors, aliquots from the cell-free supernatants were assayed for NO and IL-6 release. Surviving cells were stained and fixed (crystal violet 0.05% in 20% ethanol), to determine if the decrease in NO production was related to a decrease in cell number due to toxicity of the compounds. […] Only those compounds that induced strong inhibition of NO release, and caused no significant cell death were selected for further evaluation.

Row | SMILES | COX-2 protein expression (in words) [1] | NO release (%) [2] [%] | inhibition at 50 µM [2] [%] | NO release (%) [3] [%] | inhibition at 50 µM [3] [%] | Survival (%) [4] [%]
1 | N=C(N)N/N=C/c1ccc(Cl)cc1Cl [KP-16735] | significant decrease of COX-2 protein expression | 20.4 | 73 | −4.2 | 106 | 51
2 | Oc1ccc2c(c1)CC1NCCc3cc(O)c(O)c-2c31 (stereo not drawn) [KP-21849, 5,6,6a,7-Tetrahydro-4H-dibenzo[de,g]quinoline-1,2,9-triol] | significant decrease of COX-2 protein expression | −0.1 | 100 | −4.2 | 110 | 51
